In the supplement of paper PMC10307832:

Columns and labels:
Experiment in all cases: relative viability (nuclei count vs DMSO), 5 days (fraction); higher = more cells survive
XMD13-2 + Trametinib = compound: C1CC1C(=O)NC2=NNC3=C2C=CC(=C3)C4=CC(=CC=C4)C(=O)NC5CC5 [XMD13-2] + CC(=O)Nc1cccc(-n2c(=O)n(C3CC3)c(=O)c3c(Nc4ccc(I)cc4F)n(C)c(=O)c(C)c32)c1 [Trametinib] (partner 0.02 µM)
How it was run: (§1)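 One day after seeding in 1536-well plates, lung cancer cell lines were dosed by pin tool. Dosing was either single-drug or a fixed anchor-drug dose plus five library-drug doses (not always all listed) in √10 steps. After 5 days, nuclei were stained in one fix-and-stain step and counted on 4× images, and relative viability is the nuclei count of treated wells over that of vehicle wells, given as the median of duplicate plates.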

ALW-II-49-7 + Navitoclax = compound: Cc1ccc(C(=O)Nc2cccc(C(F)(F)F)c2)cc1Nc1cncc(C(N)=O)c1 [ALW-II-49-7] + CC1(C)CCC(c2ccc(Cl)cc2)=C(CN2CCN(c3ccc(C(=O)NS(=O)(=O)c4ccc(N[C@H](CCN5CCOCC5)CSc5ccccc5)c(S(=O)(=O)C(F)(F)F)c4)cc3)CC2)C1 [Navitoclax] (partner 0.5 µM)
How it was run: as §1

Dasatinib + Pictilisib = compound: Cc1nc(Nc2ncc(C(=O)Nc3c(C)cccc3Cl)s2)cc(N2CCN(CCO)CC2)n1 [Dasatinib] + CS(=O)(=O)N1CCN(Cc2cc3nc(-c4cccc5[nH]ncc45)nc(N4CCOCC4)c3s2)CC1 [Pictilisib] (partner 1 µM)
How it was run: as §1

Dasatinib + Linsitinib = compound: Cc1nc(Nc2ncc(C(=O)Nc3c(C)cccc3Cl)s2)cc(N2CCN(CCO)CC2)n1 [Dasatinib] + C[C@]1(O)C[C@@H](c2nc(-c3ccc4ccc(-c5ccccc5)nc4c3)c3c(N)nccn32)C1 [Linsitinib] (partner 1 µM)
How it was run: as §1

Cell Line: 201T
- relative viability (XMD13-2 + Trametinib; first compound 0.05 µM): 0.712
- relative viability (XMD13-2 + Trametinib; first compound 0.1581 µM): 0.748
- relative viability (XMD13-2 + Trametinib; first compound 0.5 µM): 0.736
- relative viability (XMD13-2 + Trametinib; first compound 1.581 µM): 0.703
- relative viability (XMD13-2 + Trametinib; first compound 5 µM): 0.783
- relative viability (ALW-II-49-7 + Navitoclax; first compound 0.08 µM): 1.18
- relative viability (ALW-II-49-7 + Navitoclax; first compound 0.253 µM): 1.22
- relative viability (ALW-II-49-7 + Navitoclax; first compound 0.8 µM): 1.21
- relative viability (ALW-II-49-7 + Navitoclax; first compound 2.53 µM): 1.27
- relative viability (ALW-II-49-7 + Navitoclax; first compound 8 µM): 1.23
- relative viability (Dasatinib + Pictilisib; first compound 0.005 µM): 0.664
- relative viability (Dasatinib + Pictilisib; first compound 0.01581 µM): 0.517
- relative viability (Dasatinib + Pictilisib; first compound 0.05 µM): 0.627
- relative viability (Dasatinib + Pictilisib; first compound 0.1581 µM): 0.521
- relative viability (Dasatinib + Pictilisib; first compound 0.5 µM): 0.383
- relative viability (Dasatinib + Linsitinib; first compound 0.005 µM): 1.03
- relative viability (Dasatinib + Linsitinib; first compound 0.01581 µM): 0.953
- relative viability (Dasatinib + Linsitinib; first compound 0.05 µM): 0.812
- relative viability (Dasatinib + Linsitinib; first compound 0.1581 µM): 0.679
- relative viability (Dasatinib + Linsitinib; first compound 0.5 µM): 0.371

Cell Line: A549
- relative viability (ALW-II-49-7 + Navitoclax; first compound 0.08 µM): 1.2
- relative viability (ALW-II-49-7 + Navitoclax; first compound 0.253 µM): 1.21
- relative viability (ALW-II-49-7 + Navitoclax; first compound 0.8 µM): 1.33
- relative viability (ALW-II-49-7 + Navitoclax; first compound 2.53 µM): 1.15
- relative viability (ALW-II-49-7 + Navitoclax; first compound 8 µM): 1.21
- relative viability (Dasatinib + Pictilisib; first compound 0.005 µM): 0.388
- relative viability (Dasatinib + Pictilisib; first compound 0.01581 µM): 0.257
- relative viability (Dasatinib + Pictilisib; first compound 0.05 µM): 0.3
- relative viability (Dasatinib + Pictilisib; first compound 0.1581 µM): 0.134
- relative viability (Dasatinib + Pictilisib; first compound 0.5 µM): 0.0986
- relative viability (Dasatinib + Linsitinib; first compound 0.005 µM): 0.518
- relative viability (Dasatinib + Linsitinib; first compound 0.01581 µM): 0.348
- relative viability (Dasatinib + Linsitinib; first compound 0.05 µM): 0.34
- relative viability (Dasatinib + Linsitinib; first compound 0.1581 µM): 0.211
- relative viability (Dasatinib + Linsitinib; first compound 0.5 µM): 0.0589

Cell Line: A-427
- relative viability (XMD13-2 + Trametinib; first compound 0.05 µM): 0.795
- relative viability (XMD13-2 + Trametinib; first compound 0.1581 µM): 0.649
- relative viability (XMD13-2 + Trametinib; first compound 0.5 µM): 0.755
- relative viability (XMD13-2 + Trametinib; first compound 5 µM): 0.581
- relative viability (ALW-II-49-7 + Navitoclax; first compound 0.08 µM): 1.07
- relative viability (ALW-II-49-7 + Navitoclax; first compound 0.253 µM): 0.942
- relative viability (ALW-II-49-7 + Navitoclax; first compound 0.8 µM): 0.998
- relative viability (ALW-II-49-7 + Navitoclax; first compound 2.53 µM): 0.994
- relative viability (ALW-II-49-7 + Navitoclax; first compound 8 µM): 1.05
- relative viability (Dasatinib + Pictilisib; first compound 0.005 µM): 0.705
- relative viability (Dasatinib + Pictilisib; first compound 0.01581 µM): 0.674
- relative viability (Dasatinib + Pictilisib; first compound 0.05 µM): 0.663
- relative viability (Dasatinib + Pictilisib; first compound 0.1581 µM): 0.511
- relative viability (Dasatinib + Pictilisib; first compound 0.5 µM): 0.461
- relative viability (Dasatinib + Linsitinib; first compound 0.005 µM): 1.1
- relative viability (Dasatinib + Linsitinib; first compound 0.01581 µM): 1.14
- relative viability (Dasatinib + Linsitinib; first compound 0.05 µM): 0.995
- relative viability (Dasatinib + Linsitinib; first compound 0.1581 µM): 0.574
- relative viability (Dasatinib + Linsitinib; first compound 0.5 µM): 0.535

Cell Line: ABC-1
- relative viability (Dasatinib + Pictilisib; first compound 0.005 µM): 0.937
- relative viability (Dasatinib + Pictilisib; first compound 0.01581 µM): 0.625
- relative viability (Dasatinib + Pictilisib; first compound 0.05 µM): 0.659
- relative viability (Dasatinib + Pictilisib; first compound 0.1581 µM): 0.644
- relative viability (Dasatinib + Pictilisib; first compound 0.5 µM): 0.506
- relative viability (Dasatinib + Linsitinib; first compound 0.005 µM): 0.743
- relative viability (Dasatinib + Linsitinib; first compound 0.01581 µM): 0.704
- relative viability (Dasatinib + Linsitinib; first compound 0.05 µM): 0.592
- relative viability (Dasatinib + Linsitinib; first compound 0.1581 µM): 0.452
- relative viability (Dasatinib + Linsitinib; first compound 0.5 µM): 0.49

Cell Line: BEN
- relative viability (XMD13-2 + Trametinib; first compound 0.05 µM): 1.11
- relative viability (XMD13-2 + Trametinib; first compound 0.1581 µM): 1
- relative viability (XMD13-2 + Trametinib; first compound 0.5 µM): 1.21
- relative viability (XMD13-2 + Trametinib; first compound 1.581 µM): 0.991
- relative viability (XMD13-2 + Trametinib; first compound 5 µM): 1.07
- relative viability (ALW-II-49-7 + Navitoclax; first compound 0.08 µM): 0.111
- relative viability (ALW-II-49-7 + Navitoclax; first compound 0.253 µM): 0.0965
- relative viability (ALW-II-49-7 + Navitoclax; first compound 0.8 µM): 0.0694
- relative viability (ALW-II-49-7 + Navitoclax; first compound 8 µM): 0.0797
- relative viability (Dasatinib + Pictilisib; first compound 0.005 µM): 0.446
- relative viability (Dasatinib + Pictilisib; first compound 0.01581 µM): 0.37
- relative viability (Dasatinib + Pictilisib; first compound 0.05 µM): 0.323
- relative viability (Dasatinib + Pictilisib; first compound 0.1581 µM): 0.297
- relative viability (Dasatinib + Pictilisib; first compound 0.5 µM): 0.294
- relative viability (Dasatinib + Linsitinib; first compound 0.005 µM): 0.776
- relative viability (Dasatinib + Linsitinib; first compound 0.01581 µM): 0.476
- relative viability (Dasatinib + Linsitinib; first compound 0.05 µM): 0.531
- relative viability (Dasatinib + Linsitinib; first compound 0.1581 µM): 0.38
- relative viability (Dasatinib + Linsitinib; first compound 0.5 µM): 0.322

Cell Line: CAL-12T
- relative viability (XMD13-2 + Trametinib; first compound 0.05 µM): 0.465
- relative viability (XMD13-2 + Trametinib; first compound 0.1581 µM): 0.399
- relative viability (XMD13-2 + Trametinib; first compound 0.5 µM): 0.332
- relative viability (XMD13-2 + Trametinib; first compound 1.581 µM): 0.317
- relative viability (XMD13-2 + Trametinib; first compound 5 µM): 0.307
- relative viability (ALW-II-49-7 + Navitoclax; first compound 0.08 µM): 1.15
- relative viability (ALW-II-49-7 + Navitoclax; first compound 0.253 µM): 1.08
- relative viability (ALW-II-49-7 + Navitoclax; first compound 0.8 µM): 1.2
- relative viability (ALW-II-49-7 + Navitoclax; first compound 2.53 µM): 1.42
- relative viability (ALW-II-49-7 + Navitoclax; first compound 8 µM): 1.17
- relative viability (Dasatinib + Pictilisib; first compound 0.005 µM): 0.303
- relative viability (Dasatinib + Pictilisib; first compound 0.01581 µM): 0.586
- relative viability (Dasatinib + Pictilisib; first compound 0.05 µM): 0.337
- relative viability (Dasatinib + Pictilisib; first compound 0.1581 µM): 0.223
- relative viability (Dasatinib + Pictilisib; first compound 0.5 µM): 0.128
- relative viability (Dasatinib + Linsitinib; first compound 0.005 µM): 0.848
- relative viability (Dasatinib + Linsitinib; first compound 0.01581 µM): 0.853
- relative viability (Dasatinib + Linsitinib; first compound 0.05 µM): 0.853
- relative viability (Dasatinib + Linsitinib; first compound 0.1581 µM): 0.46
- relative viability (Dasatinib + Linsitinib; first compound 0.5 µM): 0.286

Cell Line: COR-L23
- relative viability (XMD13-2 + Trametinib; first compound 0.05 µM): 0.611
- relative viability (XMD13-2 + Trametinib; first compound 0.1581 µM): 0.591
- relative viability (XMD13-2 + Trametinib; first compound 0.5 µM): 0.684
- relative viability (XMD13-2 + Trametinib; first compound 1.581 µM): 0.552
- relative viability (XMD13-2 + Trametinib; first compound 5 µM): 0.626
- relative viability (ALW-II-49-7 + Navitoclax; first compound 0.08 µM): 1.14
- relative viability (ALW-II-49-7 + Navitoclax; first compound 0.253 µM): 0.954
- relative viability (ALW-II-49-7 + Navitoclax; first compound 0.8 µM): 1.04
- relative viability (ALW-II-49-7 + Navitoclax; first compound 2.53 µM): 0.805
- relative viability (ALW-II-49-7 + Navitoclax; first compound 8 µM): 1.27
- relative viability (Dasatinib + Pictilisib; first compound 0.005 µM): 0.714
- relative viability (Dasatinib + Pictilisib; first compound 0.01581 µM): 0.608
- relative viability (Dasatinib + Pictilisib; first compound 0.05 µM): 0.744
- relative viability (Dasatinib + Pictilisib; first compound 0.1581 µM): 0.34
- relative viability (Dasatinib + Pictilisib; first compound 0.5 µM): 0.207
- relative viability (Dasatinib + Linsitinib; first compound 0.005 µM): 0.867
- relative viability (Dasatinib + Linsitinib; first compound 0.01581 µM): 0.665
- relative viability (Dasatinib + Linsitinib; first compound 0.05 µM): 0.613
- relative viability (Dasatinib + Linsitinib; first compound 0.1581 µM): 0.329
- relative viability (Dasatinib + Linsitinib; first compound 0.5 µM): 0.242
